Species: Rattus norvegicus
Test: Open TG-GATES - Regimen: Daily Repeat
Format: toxicity, organism-based, Sprague-Dawley
Set-up: regimen Daily Repeat, gender Male, age 6 weeks
Conditions: in vivo, sc, 0.2 mg/kg, route subcutaneous injection, dose 200 ug/Kg, dose level High; for APTT / Bas / Eos / Fbg / Hb / Ht / Lym / MCH / MCHC / MCV / Mono / Neu / PT / Plat / RBC / Ret / WBC: tissue Blood; for KIDNEY_L / KIDNEY_R / KIDNEY_TOTAL: tissue Kidney; for LIVER: tissue Liver; for A/G / ALP / ALT / AST / BUN / CRE / Ca / Cl / DBIL / GLC / IP / K / LDH / Na / PL / RALB / TBIL / TC / TG / TP / gamma-GTP: tissue Plasma

Work on CC(=O)O.N=C(N)NCCC[C@@H](NC(=O)[C@@H]1CCCN1C(=O)[C@@H]1CSSCCC(=O)N[C@@H](Cc2ccc(O)cc2)C(=O)N[C@@H](Cc2ccccc2)C(=O)N[C@@H](CCC(N)=O)C(=O)N[C@@H](CC(N)=O)C(=O)N1)C(=O)NCC(N)=O [DESMOPRESSIN ACETATE] yielded a TERMINAL_BW (72 h, time 3 day) of 235.3 g, an APTT (72 h, time 3 day) of 17.2 s and a Bas (72 h, time 3 day) of 0%. The Eos (72 h, time 3 day) was 1%, the Fbg (72 h, time 3 day) was 258 mg/dL and the Hb (72 h, time 3 day) was 13.4 g/dL. The Ht (72 h, time 3 day) was 40.8%, the Lym (72 h, time 3 day) was 67.8% and the MCH (72 h, time 3 day) was 21.1 pg. The MCHC (72 h, time 3 day) was 32.8%, the MCV (72 h, time 3 day) was 64.3 fL and the Mono (72 h, time 3 day) was 11.8%. For the same compound, the Neu (72 h, time 3 day) was 18.8%, the PT (72 h, time 3 day) was 12.2 s and the Plat (72 h, time 3 day) was 126.8 x10_4/uL. For the same compound, the RBC (72 h, time 3 day) was 635.6 x10_4/ul, the Ret (72 h, time 3 day) was 6.8% and the WBC (72 h, time 3 day) was 73.8 x10_2/uL. It also gave a KIDNEY_L (72 h, time 3 day) of 1.1 g, a KIDNEY_R (72 h, time 3 day) of 1.1 g and a KIDNEY_TOTAL (72 h, time 3 day) of 2.2 g. The LIVER (72 h, time 3 day) was 10 g, the A/G (72 h, time 3 day) was 2 and the ALP (72 h, time 3 day) was 1277.4 IU/L. For the same compound, the ALT (72 h, time 3 day) was 32 IU/L, the AST (72 h, time 3 day) was 69.2 IU/L and the BUN (72 h, time 3 day) was 20 mg/dL. It also gave a CRE (72 h, time 3 day) of 0.4 mg/dL, a Ca (72 h, time 3 day) of 11.3 mg/dL and a Cl (72 h, time 3 day) of 102.8 meq/L. The DBIL (72 h, time 3 day) was 0.012 mg/dL, the GLC (72 h, time 3 day) was 196.4 mg/dL and the IP (72 h, time 3 day) was 7.6 mg/dL. For the same compound, the K (72 h, time 3 day) was 5.5 meq/L, the LDH (72 h, time 3 day) was 179.6 IU/L and the Na (72 h, time 3 day) was 136 meq/L. The PL (72 h, time 3 day) was 138.6 mg/dL, the RALB (72 h, time 3 day) was 3.7 g/dL and the TBIL (72 h, time 3 day) was 0.042 mg/dL. It also gave a TC (72 h, time 3 day) of 75.6 mg/dL, a TG (72 h, time 3 day) of 85.2 mg/dL and a TP (72 h, time 3 day) of 5.6 g/dL. The gamma-GTP (72 h, time 3 day) was 1 IU/L, the TERMINAL_BW ([…], time 7 day) was 258.6 g and the TERMINAL_BW ([…], time 14 day) was 323.7 g. For the same compound, the TERMINAL_BW ([…], time 28 day) was 400.9 g, the APTT ([…], time 7 day) was 18.6 s and the Bas ([…], time 7 day) was 0%. For the same compound, the Eos ([…], time 7 day) was 1%, the Fbg ([…], time 7 day) was 251.8 mg/dL and the Hb ([…], time 7 day) was 13.6 g/dL. For the same compound, the Ht ([…], time 7 day) was 41.4%, the Lym ([…], time 7 day) was 75% and the MCH ([…], time 7 day) was 20.7 pg. It also gave an MCHC ([…], time 7 day) of 32.9%, an MCV ([…], time 7 day) of 63.1 fL and a Mono ([…], time 7 day) of 8.2%. For the same compound, the Neu ([…], time 7 day) was 16.2%, the PT ([…], time 7 day) was 13.4 s and the Plat ([…], time 7 day) was 122 x10_4/uL. For the same compound, the RBC ([…], time 7 day) was 656.4 x10_4/ul, the Ret ([…], time 7 day) was 7.3% and the WBC ([…], time 7 day) was 112.4 x10_2/uL. For the same compound, the APTT ([…], time 14 day) was 17 s, the Bas ([…], time 14 day) was 0% and the Eos ([…], time 14 day) was 1.2%. For the same compound, the Fbg ([…], time 14 day) was 244.8 mg/dL, the Hb ([…], time 14 day) was 13.8 g/dL and the Ht ([…], time 14 day) was 42.7%. For the same compound, the Lym ([…], time 14 day) was 73.2%, the MCH ([…], time 14 day) was 20.5 pg and the MCHC ([…], time 14 day) was 32.4%. It also gave an MCV ([…], time 14 day) of 63.2 fL, a Mono ([…], time 14 day) of 8.2% and a Neu ([…], time 14 day) of 17.4%. The PT ([…], time 14 day) was 11.9 s, the Plat ([…], time 14 day) was 110.6 x10_4/uL and the RBC ([…], time 14 day) was 675.8 x10_4/ul. For the same compound, the Ret ([…], time 14 day) was 6.1%, the WBC ([…], time 14 day) was 104.8 x10_2/uL and the APTT ([…], time 28 day) was 18.9 s. It also gave a Bas ([…], time 28 day) of 0%, an Eos ([…], time 28 day) of 1% and a Fbg ([…], time 28 day) of 260.8 mg/dL. It also gave a Hb ([…], time 28 day) of 15 g/dL, a Ht ([…], time 28 day) of 45.6% and a Lym ([…], time 28 day) of 80.4%. For the same compound, the MCH ([…], time 28 day) was 18.8 pg, the MCHC ([…], time 28 day) was 32.8% and the MCV ([…], time 28 day) was 57.4 fL. It also gave a Mono ([…], time 28 day) of 6.4%, a Neu ([…], time 28 day) of 11.8% and a PT ([…], time 28 day) of 12.2 s. The Plat ([…], time 28 day) was 112.2 x10_4/uL, the RBC ([…], time 28 day) was 795.2 x10_4/ul and the Ret ([…], time 28 day) was 3.1%. For the same compound, the WBC ([…], time 28 day) was 95 x10_2/uL, the KIDNEY_L ([…], time 7 day) was 1.3 g and the KIDNEY_R ([…], time 7 day) was 1.3 g. For the same compound, the KIDNEY_TOTAL ([…], time 7 day) was 2.6 g, the KIDNEY_L ([…], time 14 day) was 1.5 g and the KIDNEY_R ([…], time 14 day) was 1.5 g. For the same compound, the KIDNEY_TOTAL ([…], time 14 day) was 3 g, the KIDNEY_L ([…], time 28 day) was 1.8 g and the KIDNEY_R ([…], time 28 day) was 1.8 g. It also gave a KIDNEY_TOTAL ([…], time 28 day) of 3.6 g, an LIVER ([…], time 7 day) of 11.3 g and an LIVER ([…], time 14 day) of 13.6 g. For the same compound, the LIVER ([…], time 28 day) was 14.7 g, the A/G ([…], time 7 day) was 2 and the ALP ([…], time 7 day) was 1056 IU/L. The ALT ([…], time 7 day) was 30.2 IU/L, the AST ([…], time 7 day) was 67.6 IU/L and the BUN ([…], time 7 day) was 21.2 mg/dL. For the same compound, the CRE ([…], time 7 day) was 0.4 mg/dL, the Ca ([…], time 7 day) was 13.2 mg/dL and the Cl ([…], time 7 day) was 98.8 meq/L. For the same compound, the DBIL ([…], time 7 day) was 0.014 mg/dL, the GLC ([…], time 7 day) was 200.8 mg/dL and the IP ([…], time 7 day) was 7.4 mg/dL. The K ([…], time 7 day) was 4.8 meq/L, the LDH ([…], time 7 day) was 169.6 IU/L and the Na ([…], time 7 day) was 129.8 meq/L. It also gave a PL ([…], time 7 day) of 130 mg/dL, an RALB ([…], time 7 day) of 3.6 g/dL and a TBIL ([…], time 7 day) of 0.042 mg/dL. For the same compound, the TC ([…], time 7 day) was 71.4 mg/dL, the TG ([…], time 7 day) was 90.2 mg/dL and the TP ([…], time 7 day) was 5.5 g/dL. The gamma-GTP ([…], time 7 day) was 1 IU/L, the A/G ([…], time 14 day) was 1.9 and the ALP ([…], time 14 day) was 1196.4 IU/L. For the same compound, the ALT ([…], time 14 day) was 31.8 IU/L, the AST ([…], time 14 day) was 69.2 IU/L and the BUN ([…], time 14 day) was 20.8 mg/dL. It also gave a CRE ([…], time 14 day) of 0.4 mg/dL, a Ca ([…], time 14 day) of 10.7 mg/dL and a Cl ([…], time 14 day) of 105.6 meq/L. For the same compound, the DBIL ([…], time 14 day) was 0.014 mg/dL, the GLC ([…], time 14 day) was 207 mg/dL and the IP ([…], time 14 day) was 7.5 mg/dL. It also gave a K ([…], time 14 day) of 5 meq/L, an LDH ([…], time 14 day) of 125.6 IU/L and a Na ([…], time 14 day) of 138.6 meq/L. For the same compound, the PL ([…], time 14 day) was 150.8 mg/dL, the RALB ([…], time 14 day) was 3.7 g/dL and the TBIL ([…], time 14 day) was 0.038 mg/dL. The TC ([…], time 14 day) was 75.6 mg/dL, the TG ([…], time 14 day) was 119.8 mg/dL and the TP ([…], time 14 day) was 5.7 g/dL. The gamma-GTP ([…], time 14 day) was 1 IU/L, the A/G ([…], time 28 day) was 1.6 and the ALP ([…], time 28 day) was 872.6 IU/L. The ALT ([…], time 28 day) was 28 IU/L, the AST ([…], time 28 day) was 62.8 IU/L and the BUN ([…], time 28 day) was 22 mg/dL. For the same compound, the CRE ([…], time 28 day) was 0.4 mg/dL, the Ca ([…], time 28 day) was 9.2 mg/dL and the Cl ([…], time 28 day) was 105.6 meq/L. For the same compound, the DBIL ([…], time 28 day) was 0.01 mg/dL, the GLC ([…], time 28 day) was 182.8 mg/dL and the IP ([…], time 28 day) was 6.5 mg/dL. The K ([…], time 28 day) was 4.8 meq/L, the LDH ([…], time 28 day) was 160 IU/L and the Na ([…], time 28 day) was 138.4 meq/L. For the same compound, the PL ([…], time 28 day) was 153.2 mg/dL, the RALB ([…], time 28 day) was 3.8 g/dL and the TBIL ([…], time 28 day) was 0.046 mg/dL. For the same compound, the TC ([…], time 28 day) was 88.4 mg/dL, the TG ([…], time 28 day) was 117.6 mg/dL and the TP ([…], time 28 day) was 6.1 g/dL. For the same compound, the gamma-GTP ([…], time 28 day) was 0.6 IU/L.

Reference: ChEMBL document CHEMBL3885861, “Open TG-GATES”
